Results published in ChEMBL document CHEMBL1153944, “Exploration of click reaction for the synthesis of modified nucleosides as chitin synthase inhibitors” (Bioorg Med Chem, 2009).
Converted amounts (≈) assume the structure as drawn.

Key:
Candida albicans = assay: Antifungal activity against Candida albicans by broth microdilution test; assay type: functional, organism-based
Benjaminiella poitrasii [1] = assay: Inhibition of chitin synthase activity in Benjaminiella poitrasii at 4 ug/mL
Fusarium oxysporum = assay: Antifungal activity against Fusarium oxysporum by broth microdilution test; assay type: functional, organism-based
Cryptococcus neoformans = assay: Antifungal activity against Cryptococcus neoformans by broth microdilution test; assay type: functional, organism-based
Benjaminiella poitrasii [2] = assay: Antifungal activity against Benjaminiella poitrasii at 4 ug/mL by standard broth microdilution technique; assay type: functional
Benjaminiella poitrasii [3] = assay: Antifungal activity against Benjaminiella poitrasii assessed as inhibition of germ tube formation at 4 ug/mL after 6 hrs; assay type: functional

SMILES | IC50 (Candida albicans) | MIC90 (Candida albicans) | inhibition (Benjaminiella poitrasii [1]) | IC50 (Fusarium oxysporum) | MIC90 (Fusarium oxysporum) | IC50 (Cryptococcus neoformans) | MIC90 (Cryptococcus neoformans) | inhibition at 4 µg/mL (Benjaminiella poitrasii [2]) | inhibition at 4 µg/mL (Benjaminiella poitrasii [3])
CC1(C)O[C@@H]2[C@H](O1)[C@@H](Cn1cc(COC(=O)CCl)nn1)O[C@H]2n1ccc(=O)[nH]c1=O | 32 µg/mL (≈ 72.4 µM) | 66 µg/mL (≈ 149 µM) | 75.7% | 8 µg/mL (≈ 18.1 µM) | 16 µg/mL (≈ 36.2 µM) | 125 µg/mL (≈ 283 µM) | > 128 µg/mL | 30.2% | 60%
OC(Cn1cncn1)(Cn1cncn1)c1ccc(F)cc1F [FLUCONAZOLE] | 14 µg/mL (≈ 45.7 µM) | 32 µg/mL (≈ 104 µM) | – | – | 8 µg/mL (≈ 26.1 µM) | – | 32 µg/mL (≈ 104 µM) | – | –
CC1(C)O[C@@H]2[C@H](O1)[C@@H](Cn1cc(COc3ccc(Cl)cc3)nn1)O[C@H]2n1ccc(=O)[nH]c1=O | 18 µg/mL (≈ 37.8 µM) | 32 µg/mL (≈ 67.2 µM) | 95.1% | 16 µg/mL (≈ 33.6 µM) | 32 µg/mL (≈ 67.2 µM) | 30 µg/mL (≈ 63 µM) | 57 µg/mL (≈ 120 µM) | 34.6% | 58.1%
CC1(C)O[C@@H]2[C@H](O1)[C@@H](Cn1cc(COC(=O)Cc3ccc(Cl)cc3Cl)nn1)O[C@H]2n1ccc(=O)[nH]c1=O | 32 µg/mL (≈ 57.9 µM) | > 128 µg/mL | 67% | > 128 µg/mL | > 128 µg/mL | 32 µg/mL (≈ 57.9 µM) | 64 µg/mL (≈ 116 µM) | 38.6% | 57.1%
Cc1cccc(OCc2cn(C[C@H]3O[C@@H](n4ccc(=O)[nH]c4=O)[C@@H]4OC(C)(C)O[C@@H]43)nn2)c1 | 34 µg/mL (≈ 74.6 µM) | 128 µg/mL (≈ 281 µM) | 82.1% | 32 µg/mL (≈ 70.3 µM) | 64 µg/mL (≈ 141 µM) | 8 µg/mL (≈ 17.6 µM) | 64 µg/mL (≈ 141 µM) | 34.4% | 69.2%
CC1(C)O[C@@H]2[C@H](O1)[C@@H](Cn1cc(COC(=O)C(=O)c3ccccc3)nn1)O[C@H]2n1ccc(=O)[nH]c1=O | > 128 µg/mL | > 128 µg/mL | 80% | 55 µg/mL (≈ 111 µM) | 106 µg/mL (≈ 213 µM) | 16 µg/mL (≈ 32.2 µM) | > 128 µg/mL | 51.5% | 72%
CC1(C)O[C@@H]2[C@H](O1)[C@@H](Cn1cc(COc3ccc([N+](=O)[O-])cc3)nn1)O[C@H]2n1ccc(=O)[nH]c1=O | > 128 µg/mL | > 128 µg/mL | 77.8% | 32 µg/mL (≈ 65.8 µM) | 64 µg/mL (≈ 132 µM) | 14 µg/mL (≈ 28.8 µM) | 32 µg/mL (≈ 65.8 µM) | 17.4% | 78.2%
CC1(C)O[C@@H]2[C@H](O1)[C@@H](Cn1cc(COC(=O)COc3ccccc3)nn1)O[C@H]2n1ccc(=O)[nH]c1=O | 64 µg/mL (≈ 128 µM) | > 128 µg/mL | 74% | 16 µg/mL (≈ 32 µM) | 33 µg/mL (≈ 66.1 µM) | 128 µg/mL (≈ 256 µM) | > 128 µg/mL | 56.2% | 52.5%
C[C@@H]1[C@H](O)[C@@H](C)/C=C/C=C/C=C/C=C/C=C/C=C/C=C/[C@H](O[C@@H]2O[C@H](C)[C@@H](O)[C@H](N)[C@@H]2O)C[C@@H]2O[C@](O)(C[C@@H](O)C[C@@H](O)[C@H](O)CC[C@@H](O)C[C@@H](O)CC(=O)O[C@H]1C)C[C@H](O)[C@H]2C(=O)O [AMPHOTERICIN B] | – | 2 µg/mL (≈ 2.16 µM) | – | – | 16 µg/mL (≈ 17.3 µM) | – | 16 µg/mL (≈ 17.3 µM) | – | –
CC1(C)O[C@@H]2[C@H](O1)[C@@H](Cn1cc(COc3cccc4ccccc34)nn1)O[C@H]2n1ccc(=O)[nH]c1=O | 34 µg/mL (≈ 69.2 µM) | > 128 µg/mL | 76.9% | 32 µg/mL (≈ 65.1 µM) | 64 µg/mL (≈ 130 µM) | 32 µg/mL (≈ 65.1 µM) | 64 µg/mL (≈ 130 µM) | 32.4% | 72.7%
CC1(C)O[C@@H]2[C@H](O1)[C@@H](Cn1cc(COC(=O)Cc3ccccc3)nn1)O[C@H]2n1ccc(=O)[nH]c1=O | 18 µg/mL (≈ 37.2 µM) | 32 µg/mL (≈ 66.2 µM) | 71% | 16 µg/mL (≈ 33.1 µM) | 32 µg/mL (≈ 66.2 µM) | 18 µg/mL (≈ 37.2 µM) | 31 µg/mL (≈ 64.1 µM) | 31.9% | 75%
COc1ccc(OCc2cn(C[C@H]3O[C@@H](n4ccc(=O)[nH]c4=O)[C@@H]4OC(C)(C)O[C@@H]43)nn2)cc1 | 16 µg/mL (≈ 33.9 µM) | 24 µg/mL (≈ 50.9 µM) | 68.5% | 70 µg/mL (≈ 148 µM) | 124 µg/mL (≈ 263 µM) | 35 µg/mL (≈ 74.2 µM) | 49 µg/mL (≈ 104 µM) | 29.3% | 71.4%
CC1(C)O[C@@H]2[C@H](O1)[C@@H](Cn1cc(COc3ccccc3)nn1)O[C@H]2n1ccc(=O)[nH]c1=O | 68 µg/mL (≈ 154 µM) | > 128 µg/mL | 77.2% | 128 µg/mL (≈ 290 µM) | > 128 µg/mL | 4 µg/mL (≈ 9.06 µM) | 8 µg/mL (≈ 18.1 µM) | 21.5% | 45.1%
CC1(C)O[C@@H]2[C@H](O1)[C@@H](Cn1cc(COC(=O)Cc3ccc(O)cc3)nn1)O[C@H]2n1ccc(=O)[nH]c1=O | > 128 µg/mL | > 128 µg/mL | 73.4% | 35 µg/mL (≈ 70.1 µM) | 57 µg/mL (≈ 114 µM) | 128 µg/mL (≈ 256 µM) | > 128 µg/mL | 28.2% | 61.5%
CC1(C)O[C@@H]2[C@H](O1)[C@@H](Cn1cc(COc3ccc(F)cc3)nn1)O[C@H]2n1ccc(=O)[nH]c1=O | 9 µg/mL (≈ 19.6 µM) | > 128 µg/mL | 84.1% | 128 µg/mL (≈ 279 µM) | > 128 µg/mL | 64 µg/mL (≈ 139 µM) | 128 µg/mL (≈ 279 µM) | 9.43% | 64.7%
C[C@@H]([C@H](N)C(=O)N[C@H](C(=O)O)[C@H]1O[C@@H](n2ccc(=O)[nH]c2=O)[C@H](O)[C@@H]1O)[C@H](O)c1ccc(O)cn1 [NIKKOMYCIN] | 32 µg/mL (≈ 64.6 µM) | 64 µg/mL (≈ 129 µM) | 96.6% | 6 µg/mL (≈ 12.1 µM) | 8 µg/mL (≈ 16.1 µM) | 16 µg/mL (≈ 32.3 µM) | 30 µg/mL (≈ 60.6 µM) | 45.5% | > 95%
Cc1ccccc1CC(=O)OCc1cn(C[C@H]2O[C@@H](n3ccc(=O)[nH]c3=O)[C@@H]3OC(C)(C)O[C@@H]32)nn1 | 18 µg/mL (≈ 36.2 µM) | 32 µg/mL (≈ 64.3 µM) | 36.4% | 64 µg/mL (≈ 129 µM) | > 128 µg/mL | 32 µg/mL (≈ 64.3 µM) | 64 µg/mL (≈ 129 µM) | 27.3% | 67.2%
